Laboratory results published in ChEMBL document CHEMBL5608163, “Structure modification of anoplin for fighting resistant bacteria” (Eur J Med Chem, 2024).
Converted amounts (≈) assume the structure as drawn. Bridge positions count the residues as written; N and C are the ends. Peptide text beside a SMILES is read from it. I, II: the chains in the order shown. * marks the point of attachment. Lauroyl = CCCCCCCCCCCC(=O)*; Decanoyl = CCCCCCCCCC(=O)*; Octanoyl = CCCCCCCC(=O)*; Hexanoyl = CCCCCC(=O)*; Butyryl = CCCC(=O)*

How the values were obtained:
Erythrocyte = test: Hemolytic activity in human erythrocyte incubated for 70 mins by absorbance based assay; type: toxicity, cell-based; details: 1.167 h
Staphylococcus aureus = test: Antibacterial activity against Staphylococcus aureus ATCC 25923 assessed as reduction in bacterial cell growth incubated for 16 to 24 hrs by CLSI-protocol based Mueller-Hinton Broth micro-dilution method; type: functional; details: time 16-24 hrs
Bacillus subtilis = test: Antibacterial activity against Bacillus subtilis ATCC 23857 assessed as reduction in bacterial cell growth incubated for 16 to 24 hrs by CLSI-protocol based Mueller-Hinton Broth micro-dilution method; type: functional; details: time 16-24 hrs
Pseudomonas aeruginosa = test: Antibacterial activity against Pseudomonas aeruginosa ATCC 27853 assessed as reduction in bacterial cell growth incubated for 16 to 24 hrs by CLSI-protocol based Mueller-Hinton Broth micro-dilution method; type: functional; details: time 16-24 hrs
Klebsiella pneumoniae = test: Antibacterial activity against Klebsiella pneumoniae ATCC 700603 assessed as reduction in bacterial cell growth incubated for 16 to 24 hrs by CLSI-protocol based Mueller-Hinton Broth micro-dilution method; type: functional; details: time 16-24 hrs
Escherichia coli = test: Antibacterial activity against Escherichia coli ATCC 25922 assessed as reduction in bacterial cell growth incubated for 16 to 24 hrs by CLSI-protocol based Mueller-Hinton Broth micro-dilution method; type: functional; details: time 16-24 hrs

`CCCC(=O)NCC(=O)N[C@@H](CC(C)C)C(=O)N[C@@H](CC(C)C)C(=O)N[C@@H](CCCCN)C(=O)N[C@@H](CCCNC(=N)N)C(=O)N[C@H](C(=O)N[C@@H](CCCCN)C(=O)N[C@H](C(=O)N[C@@H](CC(C)C)C(=O)N[C@@H](CC(C)C)C(=O)NCCCC[C@H](NC(=O)[C@H](CCCCNC(=O)[C@H](CC(C)C)NC(=O)[C@H](CC(C)C)NC(=O)[C@@H](NC(=O)[C@H](CCCCN)NC(=O)[C@@H](NC(=O)[C@H](CCCNC(=N)N)NC(=O)[C@H](CCCCN)NC(=O)[C@H](CC(C)C)NC(=O)[C@H](CC(C)C)NC(=O)CNC(=O)CCC)[C@@H](C)CC)[C@@H](C)O)NC(=O)[C@H](CC(C)C)NC(=O)[C@H](CC(C)C)NC(=O)[C@@H](NC(=O)[C@H](CCCCN)NC(=O)[C@@H](NC(=O)[C@H](CCCNC(=N)N)NC(=O)[C@H](CCCCN)NC(=O)[C@H](CC(C)C)NC(=O)[C@H](CC(C)C)NC(=O)CNC(=O)CCC)[C@@H](C)CC)[C@@H](C)O)C(N)=O)[C@@H](C)O)[C@@H](C)CC` (I: Butyryl-GLLKRIKTLLKK-NH2 / II: Butyryl-GLLKRIKTLL / III: Butyryl-GLLKRIKTLL; amide I:11-III:C, I:12-II:C) gave an HC10 (Erythrocyte) of 3.18 µM.
`CCCCCCCCCC(=O)NCC(=O)N[C@@H](CC(C)C)C(=O)N[C@@H](CC(C)C)C(=O)N[C@@H](CCCCN)C(=O)N[C@@H](CCCNC(=N)N)C(=O)N[C@H](C(=O)N[C@@H](CCCCN)C(=O)N[C@H](C(=O)N[C@@H](CC(C)C)C(=O)N[C@@H](CC(C)C)C(=O)NCCCC[C@H](NC(=O)[C@H](CCCCNC(=O)[C@H](CC(C)C)NC(=O)[C@H](CC(C)C)NC(=O)[C@@H](NC(=O)[C@H](CCCCN)NC(=O)[C@@H](NC(=O)[C@H](CCCNC(=N)N)NC(=O)[C@H](CCCCN)NC(=O)[C@H](CC(C)C)NC(=O)[C@H](CC(C)C)NC(=O)CNC(=O)CCCCCCCCC)[C@@H](C)CC)[C@@H](C)O)NC(=O)[C@H](CC(C)C)NC(=O)[C@H](CC(C)C)NC(=O)[C@@H](NC(=O)[C@H](CCCCN)NC(=O)[C@@H](NC(=O)[C@H](CCCNC(=N)N)NC(=O)[C@H](CCCCN)NC(=O)[C@H](CC(C)C)NC(=O)[C@H](CC(C)C)NC(=O)CNC(=O)CCCCCCCCC)[C@@H](C)CC)[C@@H](C)O)C(N)=O)[C@@H](C)O)[C@@H](C)CC` (I: Decanoyl-GLLKRIKTLLKK-NH2 / II: Decanoyl-GLLKRIKTLL / III: Decanoyl-GLLKRIKTLL; amide I:11-III:C, I:12-II:C) showed an HC10 (Erythrocyte) of 146.63 µM.
Work on `CC[C@H](C)[C@H](NC(=O)[C@H](CCCNC(=N)N)NC(=O)[C@H](CCCCN)NC(=O)[C@H](CC(C)C)NC(=O)[C@H](CC(C)C)NC(=O)CN)C(=O)N[C@@H](CCCCN)C(=O)N[C@H](C(=O)N[C@@H](CC(C)C)C(=O)N[C@@H](CC(C)C)C(=O)NCCCC[C@H](NC(=O)[C@H](CCCCNC(=O)[C@H](CC(C)C)NC(=O)[C@H](CC(C)C)NC(=O)[C@@H](NC(=O)[C@H](CCCCN)NC(=O)[C@@H](NC(=O)[C@H](CCCNC(=N)N)NC(=O)[C@H](CCCCN)NC(=O)[C@H](CC(C)C)NC(=O)[C@H](CC(C)C)NC(=O)CN)[C@@H](C)CC)[C@@H](C)O)NC(=O)[C@H](CC(C)C)NC(=O)[C@H](CC(C)C)NC(=O)[C@@H](NC(=O)[C@H](CCCCN)NC(=O)[C@@H](NC(=O)[C@H](CCCNC(=N)N)NC(=O)[C@H](CCCCN)NC(=O)[C@H](CC(C)C)NC(=O)[C@H](CC(C)C)NC(=O)CN)[C@@H](C)CC)[C@@H](C)O)C(N)=O)[C@@H](C)O` (I: H-GLLKRIKTLLKK-NH2 / II: H-GLLKRIKTLL / III: H-GLLKRIKTLL; amide I:11-III:C, I:12-II:C) yielded an HC10 (Erythrocyte) of 2.53 µM.
Compound `CCCCCC(=O)NCC(=O)N[C@@H](CC(C)C)C(=O)N[C@@H](CC(C)C)C(=O)N[C@@H](CCCCN)C(=O)N[C@@H](CCCNC(=N)N)C(=O)N[C@H](C(=O)N[C@@H](CCCCN)C(=O)N[C@H](C(=O)N[C@@H](CC(C)C)C(=O)N[C@@H](CC(C)C)C(=O)NCCCC[C@H](NC(=O)[C@H](CCCCNC(=O)[C@H](CC(C)C)NC(=O)[C@H](CC(C)C)NC(=O)[C@@H](NC(=O)[C@H](CCCCN)NC(=O)[C@@H](NC(=O)[C@H](CCCNC(=N)N)NC(=O)[C@H](CCCCN)NC(=O)[C@H](CC(C)C)NC(=O)[C@H](CC(C)C)NC(=O)CNC(=O)CCCCC)[C@@H](C)CC)[C@@H](C)O)NC(=O)[C@H](CC(C)C)NC(=O)[C@H](CC(C)C)NC(=O)[C@@H](NC(=O)[C@H](CCCCN)NC(=O)[C@@H](NC(=O)[C@H](CCCNC(=N)N)NC(=O)[C@H](CCCCN)NC(=O)[C@H](CC(C)C)NC(=O)[C@H](CC(C)C)NC(=O)CNC(=O)CCCCC)[C@@H](C)CC)[C@@H](C)O)C(N)=O)[C@@H](C)O)[C@@H](C)CC` (I: Hexanoyl-GLLKRIKTLLKK-NH2 / II: Hexanoyl-GLLKRIKTLL / III: Hexanoyl-GLLKRIKTLL; amide I:11-III:C, I:12-II:C) has an HC10 (Erythrocyte) of 0.71 µM.
Work on `CCCCCCCCCCCC(=O)NCC(=O)N[C@@H](CC(C)C)C(=O)N[C@@H](CC(C)C)C(=O)N[C@@H](CCCCN)C(=O)N[C@@H](CCCNC(=N)N)C(=O)N[C@H](C(=O)N[C@@H](CCCCN)C(=O)N[C@H](C(=O)N[C@@H](CC(C)C)C(=O)N[C@@H](CC(C)C)C(=O)NCCCC[C@H](NC(=O)[C@H](CCCCNC(=O)[C@H](CC(C)C)NC(=O)[C@H](CC(C)C)NC(=O)[C@@H](NC(=O)[C@H](CCCCN)NC(=O)[C@@H](NC(=O)[C@H](CCCNC(=N)N)NC(=O)[C@H](CCCCN)NC(=O)[C@H](CC(C)C)NC(=O)[C@H](CC(C)C)NC(=O)CNC(=O)CCCCCCCCCCC)[C@@H](C)CC)[C@@H](C)O)NC(=O)[C@H](CC(C)C)NC(=O)[C@H](CC(C)C)NC(=O)[C@@H](NC(=O)[C@H](CCCCN)NC(=O)[C@@H](NC(=O)[C@H](CCCNC(=N)N)NC(=O)[C@H](CCCCN)NC(=O)[C@H](CC(C)C)NC(=O)[C@H](CC(C)C)NC(=O)CNC(=O)CCCCCCCCCCC)[C@@H](C)CC)[C@@H](C)O)C(N)=O)[C@@H](C)O)[C@@H](C)CC` (I: Lauroyl-GLLKRIKTLLKK-NH2 / II: Lauroyl-GLLKRIKTLL / III: Lauroyl-GLLKRIKTLL; amide I:11-III:C, I:12-II:C) [listing 1 of 2 here] yielded an HC10 (Erythrocyte) of 103.52 µM.
`CCCCCCCCCCCC(=O)NCC(=O)N[C@@H](CC(C)C)C(=O)N[C@@H](CC(C)C)C(=O)N[C@@H](CCCCN)C(=O)N[C@@H](CCCNC(=N)N)C(=O)N[C@H](C(=O)N[C@@H](CCCCN)C(=O)N[C@H](C(=O)N[C@@H](CC(C)C)C(=O)N[C@@H](CC(C)C)C(=O)NCCCC[C@H](NC(=O)[C@H](CCCCNC(=O)[C@H](CC(C)C)NC(=O)[C@H](CC(C)C)NC(=O)[C@@H](NC(=O)[C@H](CCCCN)NC(=O)[C@@H](NC(=O)[C@H](CCCNC(=N)N)NC(=O)[C@H](CCCCN)NC(=O)[C@H](CC(C)C)NC(=O)[C@H](CC(C)C)NC(=O)CNC(=O)CCCCCCCCCCC)[C@@H](C)CC)[C@@H](C)O)NC(=O)[C@H](CC(C)C)NC(=O)[C@H](CC(C)C)NC(=O)[C@@H](NC(=O)[C@H](CCCCN)NC(=O)[C@@H](NC(=O)[C@H](CCCNC(=N)N)NC(=O)[C@H](CCCCN)NC(=O)[C@H](CC(C)C)NC(=O)[C@H](CC(C)C)NC(=O)CNC(=O)CCCCCCCCCCC)[C@@H](C)CC)[C@@H](C)O)C(N)=O)[C@@H](C)O)[C@@H](C)CC` (I: Lauroyl-GLLKRIKTLLKK-NH2 / II: Lauroyl-GLLKRIKTLL / III: Lauroyl-GLLKRIKTLL; amide I:11-III:C, I:12-II:C) [listing 2 of 2 here] showed an MIC (Staphylococcus aureus) of 64 µM (≈ 271 µg/mL), an MIC (Bacillus subtilis) of 256 µM (≈ 1080 µg/mL) and an MIC (Pseudomonas aeruginosa) of 64 µM (≈ 271 µg/mL). It also gave an MIC (Klebsiella pneumoniae) of 64 µM (≈ 271 µg/mL) and an MIC (Escherichia coli) of 64 µM (≈ 271 µg/mL).
With `CCCCCCCC(=O)NCC(=O)N[C@@H](CC(C)C)C(=O)N[C@@H](CC(C)C)C(=O)N[C@@H](CCCCN)C(=O)N[C@@H](CCCNC(=N)N)C(=O)N[C@H](C(=O)N[C@@H](CCCCN)C(=O)N[C@H](C(=O)N[C@@H](CC(C)C)C(=O)N[C@@H](CC(C)C)C(=O)NCCCC[C@H](NC(=O)[C@H](CCCCNC(=O)[C@H](CC(C)C)NC(=O)[C@H](CC(C)C)NC(=O)[C@@H](NC(=O)[C@H](CCCCN)NC(=O)[C@@H](NC(=O)[C@H](CCCNC(=N)N)NC(=O)[C@H](CCCCN)NC(=O)[C@H](CC(C)C)NC(=O)[C@H](CC(C)C)NC(=O)CNC(=O)CCCCCCC)[C@@H](C)CC)[C@@H](C)O)NC(=O)[C@H](CC(C)C)NC(=O)[C@H](CC(C)C)NC(=O)[C@@H](NC(=O)[C@H](CCCCN)NC(=O)[C@@H](NC(=O)[C@H](CCCNC(=N)N)NC(=O)[C@H](CCCCN)NC(=O)[C@H](CC(C)C)NC(=O)[C@H](CC(C)C)NC(=O)CNC(=O)CCCCCCC)[C@@H](C)CC)[C@@H](C)O)C(N)=O)[C@@H](C)O)[C@@H](C)CC` (I: Octanoyl-GLLKRIKTLLKK-NH2 / II: Octanoyl-GLLKRIKTLL / III: Octanoyl-GLLKRIKTLL; amide I:11-III:C, I:12-II:C) [listing 1 of 2 here] the HC10 (Erythrocyte) was 59.73 µM.
In the case of `CCCCCCCC(=O)NCC(=O)N[C@@H](CC(C)C)C(=O)N[C@@H](CC(C)C)C(=O)N[C@@H](CCCCN)C(=O)N[C@@H](CCCNC(=N)N)C(=O)N[C@H](C(=O)N[C@@H](CCCCN)C(=O)N[C@H](C(=O)N[C@@H](CC(C)C)C(=O)N[C@@H](CC(C)C)C(=O)NCCCC[C@H](NC(=O)[C@H](CCCCNC(=O)[C@H](CC(C)C)NC(=O)[C@H](CC(C)C)NC(=O)[C@@H](NC(=O)[C@H](CCCCN)NC(=O)[C@@H](NC(=O)[C@H](CCCNC(=N)N)NC(=O)[C@H](CCCCN)NC(=O)[C@H](CC(C)C)NC(=O)[C@H](CC(C)C)NC(=O)CNC(=O)CCCCCCC)[C@@H](C)CC)[C@@H](C)O)NC(=O)[C@H](CC(C)C)NC(=O)[C@H](CC(C)C)NC(=O)[C@@H](NC(=O)[C@H](CCCCN)NC(=O)[C@@H](NC(=O)[C@H](CCCNC(=N)N)NC(=O)[C@H](CCCCN)NC(=O)[C@H](CC(C)C)NC(=O)[C@H](CC(C)C)NC(=O)CNC(=O)CCCCCCC)[C@@H](C)CC)[C@@H](C)O)C(N)=O)[C@@H](C)O)[C@@H](C)CC` (I: Octanoyl-GLLKRIKTLLKK-NH2 / II: Octanoyl-GLLKRIKTLL / III: Octanoyl-GLLKRIKTLL; amide I:11-III:C, I:12-II:C) [listing 2 of 2 here], the MIC (Staphylococcus aureus) is reported as 32 µM (≈ 130 µg/mL), the MIC (Bacillus subtilis) is reported as 32 µM (≈ 130 µg/mL) and the MIC (Pseudomonas aeruginosa) is reported as 32 µM (≈ 130 µg/mL). For the same compound, the MIC (Klebsiella pneumoniae) was 128 µM (≈ 520 µg/mL) and the MIC (Escherichia coli) was 32 µM (≈ 130 µg/mL).
